In assay [1] the target is T1, human FAAH (Homo sapiens, UniProt O00519).
T1 construct: The full length FAAH was subcloned into the mammalian expression vector, pcDEF.neo, using XbaI and EcoRI restriction sites; expressed in transfected cells
T1 sequence (O00519 1-579): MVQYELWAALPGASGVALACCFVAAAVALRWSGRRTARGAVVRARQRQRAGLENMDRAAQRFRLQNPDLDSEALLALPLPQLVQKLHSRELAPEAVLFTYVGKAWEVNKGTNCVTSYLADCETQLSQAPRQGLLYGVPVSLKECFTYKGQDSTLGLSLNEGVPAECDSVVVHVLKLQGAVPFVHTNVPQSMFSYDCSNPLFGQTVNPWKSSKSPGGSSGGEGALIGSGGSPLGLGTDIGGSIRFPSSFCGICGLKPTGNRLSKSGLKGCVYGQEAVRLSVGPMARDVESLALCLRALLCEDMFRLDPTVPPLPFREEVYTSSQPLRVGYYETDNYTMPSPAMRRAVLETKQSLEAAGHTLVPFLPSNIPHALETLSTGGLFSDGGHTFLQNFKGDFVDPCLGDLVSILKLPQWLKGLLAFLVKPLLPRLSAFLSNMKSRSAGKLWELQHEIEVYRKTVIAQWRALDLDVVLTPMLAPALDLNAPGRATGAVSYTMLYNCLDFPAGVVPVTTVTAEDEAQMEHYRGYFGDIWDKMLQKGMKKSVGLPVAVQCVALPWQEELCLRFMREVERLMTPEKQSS
The assay can be described thus: FAAH whole cell assay (human Whole cell, FAAH_CHO, AAMCA substrate). Format: cell-based. The following applies: CHO cells expressing human FAAH, whole cell format; read-out: human cell_IC50. The source says:
(§1) To assist in assay development stable cell lines for human, murine and rat full length FAAH were developed. Human FAAH cDNA (Accession No: NM_001441.1) was purchased from Origene (Rockville, Md.). The full length FAAH was subcloned into the mammalian expression vector, pcDEF.neo, using XbaI and EcoRI restriction sites and used for stable cell line generation.
Murine (accession number NM_010173) and Rat FAAH (accession number NM_024132) was amplified by reverse transcriptase polymerase chain reaction (RT-PCR) from brain cDNA (BD Biosciences, San Jose, Calif.) using primers 1 and 2 or primers 1 and 3 respectively (see Table). The resulting PCR product was ligated into pCR4 TOPO and DNA sequence confirmed. The full length murine FAAH was subcloned into the mammalian expression vector, pcDEFneo using either EcoRI (murine) or KpnI and EcoRI (rat) restriction sites. Chinese hamster ovary cells (CHO) were transfected following manufacturers protocol (AMAXA). Forty eight hours post transfection, cells were trypsinized and transferred to 96 well plates in Iscove's DMEM media supplemented with 2 mM Glutamine, 10% fetal calf serum, 1 mg/ml geneticin and HT Supplement (0.1 mM sodium hypoxanthine, 0.016 mM thymidine) in order to isolate single clones. Following selection in geneticin, individual clones were selected and FAAH activity was assessed using a whole cell fluorescent anandamide assay, modified from Ramarao et al (2005). Following removal of tissue culture media cells were dislodged following addition of Cellstripper (Mediatech, Inc. Manassas, Va.) and transferred to 96 well black clear bottom assay plate, centrifuged at 1,000 rpm for 3 mins and media removed and replaced with assay buffer (50 mM Tris pH8.0, 1 mM EDTA, 0.1% fatty acid free BSA). The reaction was initiated by addition of fluorescent substrate, AMC Arachidonoyl Amide (Cayman Chemical, Ann Arbor, Mich.) to 1 μM and reaction allowed to proceed for 2 hours at room temperature. Release of fluorescence was monitored in a CytoFluor Multiplate Reader. Cells expressing the highest amount of FAAH activity were selected for study with FAAH inhibitors.
(§2) Assays are performed on either cell lysate or microsome fractions prepared as described or in whole cell format employing either the fluorescent substrate AAMCA (Cayman chemical, Ann Arbor, Mich.) or ^3H-anandamide ([ETHANOLAMINE-1-3H] American Radiolabeled Chemicals; 1 mCi/ml). The cell lysate or microsome assay is performed in black PerkinElmer OptiPlates-384F by adding FAAH_CHO (whole cell (shown as human Whole cell or Human WC), cell lysate (shown as human lysate of human LY) or microsome) in assay buffer (50 mM Phosphate, pH 8.0, 1 mM EDTA, 200 mM KCl, 0.2% glycerol, 0.1% fatty acid free BSA) to each well, followed by either DMSO or compound and allowed to incubate at 22-25° C. for fifteen minutes. AAMCA substrate was used to achieve a final concentration of 1 μM and reaction allowed to proceed at room temperature for 1-3 hours. Fluorescent release as a measure of FAAH activity was monitored by reading the plate in an Envision plate Reader (Ex: 360/40 nM; Em: 460/40 nM). Whole cell assay is conducted with cells harvested after rinsing tissue culture flasks three times with Ca^++Mg^++ free PBS, incubating for 10 min in Enzyme free dissociation media and centrifuging for 5 minutes at 1,000 rpm in table top centrifuge. Cells are resuspended in assay buffer at desired cell number in (4×10^4 cells/assay in 96-well format; 1×10^4 cells/assay in 384-well format) and assayed as described.

Assay [2] has as its target T1, human FAAH. The assay can be described thus: FAAH cell lysate assay (human lysate, FAAH_CHO, AAMCA substrate). Format: biochemical. The following applies: lysate of CHO cells expressing human FAAH; read-out: human lysate_IC50.
From the text: as §1
CHO cells expressing FAAH were used to prepare either crude cell lysate or microsome fractions. To harvest cells, tissue culture media was decanted, the monolayer washed three times with Ca^++Mg^++ free PBS and cells recovered after 15 mm in enzyme free dissociation media (Millipore Corp, Billerica, Mass.). Cells were collected by centrifuging at 2000 rpm for 15 min. and the cell pellet re-suspended with 50 mM HEPES (pH 7.4) containing 1 mM EDTA and the protease inhibitors aprotinin (1 mg/ml) and leupeptin (100 μM). The suspension was sonicated at 4° C. and the cell lysate recovered after centrifuging at 12,000×g (14,600 rpm, SS34 rotor) for 20 min at 4° C. to form a crude pellet of cell debris, nuclei, peroxisomes, lysosomes, and mitochondria; the supernatant or cell lysate was used for FAAH enzyme assay. In some cases, microsomes fractions enriched in FAAH were prepared by centrifuging the cell lysate further at 27,000 rpm (100,000×g) in SW28 rotor for 50 minutes at 4° C. The pellet containing FAAH-enriched microsomes was re-suspend in 50 mM HEPES, (pH 7.4) 1 mM EDTA, and any remaining DNA sheared by passage of material through a 23 gauge needle and aliquots of enzyme were store at −80° C. prior to use.
(American Radiolabeled Chemicals; 1 mCi/ml) with FAAH (Life Sciences (1995), 56, 1999-2005 and Journal of Pharmacology and Experimented Therapeutics (1997), 283, 729-734), Analytical. Biochemistry (2003), 318:270-5. In addition, routine assays were performed monitoring hydrolysis of araehidonyl-7-amino-4-methylcoumarin amide (AAMCA) by following increase in fluorescence upon release of 7-amino 4-methyl coumarin (λEX=355 nm, (λEM=460 nm). Analytical. Biochemistry (2005). 343:143-51
as §2

Each structure is given as a SMILES string.

For `Fc1ccc(-c2nc(COc3ccc4[nH]ccc4c3)c(Sc3ccc(Cl)cn3)o2)cc1` [Example B2.10, 5-({5-[(5-chloropyridin-2-yl)sulfanyl]-2-(4-fluorophenyl)-1,3-oxazol-4-yl}methoxy)-1H-indole], the IC50 at human FAAH [1] was 298 nM; on human FAAH [2], 56 nM.

`COC(=O)c1ccc(OCc2nc(-c3ccc(F)cc3)oc2Sc2ccc(Cl)cn2)cc1` [Example B2.11, Methyl-4-({5-[(5-chloropyridin-2-yl)sulfanyl]-2-(4-fluorophenyl)-1,3-oxazol-4-yl}methoxy)benzoate]: the IC50 at human FAAH [1] was 13 nM; on human FAAH [2], 2 nM.

Consider `O=C(O)c1ccc(OCc2nc(-c3ccc(F)cc3)oc2Sc2ccc(Cl)cn2)cc1` [Example B2.11.1, 4-({5-[(5-chloropyridin-2-yl)sulfanyl]-2-(4-fluorophenyl)-1,3-oxazol-4-yl}methoxy)benzoic acid], for which the figures for the IC50 on human FAAH [1] and at human FAAH [2] were 253 nM and 59 nM, respectively.

`CCNC(=O)c1ccc(OCc2nc(-c3ccc(F)cc3)oc2Sc2ccc(Cl)cn2)cc1` [Example B2.11.2, 4-({5-[(5-chloropyridin-2-yl)sulfanyl]-2-(4-fluorophenyl)-1,3-oxazol-4-yl}methoxy)-N-ethylbenzamide]: the IC50 was found to be 14 nM on human FAAH [1] and 3 nM on human FAAH [2].

As to `CN(C)C(=O)c1ccc(OCc2nc(-c3ccc(F)cc3)oc2Sc2ccc(Cl)cn2)cc1` [Example B2.11.3, 4-({5-[(5-chloropyridin-2-yl)sulfanyl]-2-(4-fluorophenyl)-1,3-oxazol-4-yl}methoxy)-N,N-dimethylbenzamide], the IC50 at human FAAH [1] amounted to 1450 nM; on human FAAH [2], 149 nM.

For `CNC(=O)c1ccc(OCc2nc(-c3ccc(F)cc3)oc2Sc2ccc(Cl)cn2)cc1` [Example B2.11.4, 4-({5-[(5-chloropyridin-2-yl)sulfanyl]-2-(4-fluorophenyl)-1,3-oxazol-4-yl}methoxy)-N-methylbenzamide], the IC50 on human FAAH [1] worked out at 5 nM; at human FAAH [2] it was 3 nM.

For `O=C(NCC(F)(F)F)c1ccc(OCc2nc(-c3ccc(F)cc3)oc2Sc2ccc(Cl)cn2)cc1` [Example B2.11.5, 4-({5-[(5-chloropyridin-2-yl)sulfanyl]-2-(4-fluorophenyl)-1,3-oxazol-4-yl}methoxy)-N-(2,2,2-trifluoroethyl)benzamide], the IC50 was determined as 22 nM on human FAAH [1] and 5 nM on human FAAH [2].

For `Cn1ncnc1COCc1nc(-c2ccc(F)cc2)oc1Sc1ccc(Cl)cn1` [Example B2.12, 5-chloro-2-{[2-(4-fluorophenyl)-4-{[(1-methyl-1H-1,2,4-triazol-5-yl)methoxy]methyl}-1,3-oxazol-5-yl]sulfanyl}pyridine], the IC50 stood at 2150 nM on human FAAH [1] and 807 nM at human FAAH [2].

In the case of `Fc1ccc(-c2nc(COC3CCNCC3)c(Sc3ccc(Cl)cn3)o2)cc1` [Example B2.14, 5-chloro-2-({2-(4-fluorophenyl)-4-[(piperidin-4-yloxy)methyl]-1,3-oxazol-5-yl}sulfanyl)pyridine], the IC50 on human FAAH [1] was 3360 nM; at human FAAH [2] it was 902 nM.

As to `Fc1ccc(-c2nc(COC3CCOCC3)c(Sc3ccc(Cl)cn3)o2)cc1` [Example B2.15, 5-chloro-2-({2-(4-fluorophenyl)-4-[(tetrahydro-2H-pyran-4-yloxy)methyl]-1,3-oxazol-5-yl}sulfanyl)pyridine], the IC50 came out at 343 nM on human FAAH [1] and 88 nM at human FAAH [2].

As to `CCNC(=O)c1ccc(OCc2nc(-c3ccc(F)cc3)oc2Sc2ccc(Cl)cn2)nc1` [Example B2.16, 6-({5-[(5-chloropyridin-2-yl)sulfanyl]-2-(4-fluorophenyl)-1,3-oxazol-4-yl}methoxy)-N-ethylpyridine-3-carboxamide], the IC50 was determined as 10 nM at human FAAH [1] and 4 nM on human FAAH [2].

As for `COC(=O)c1ccc(NCc2nc(-c3ccc(F)cc3)oc2Sc2ccc(Cl)cn2)cc1` [Example B5.1, methyl 4-[({5-[(5-chloropyridin-2-yl)sulfanyl]-2-(4-fluorophenyl)-1,3-oxazol-4-yl}methyl)amino]benzoate], the IC50 on human FAAH [1] worked out at 18 nM; at human FAAH [2] it was 3 nM.

Consider `CCNC(=O)c1ccc(NCc2nc(-c3ccc(F)cc3)oc2Sc2ccc(Cl)cn2)cc1` [Example B5.4, 4-[({5-[(5-chloropyridin-2-yl)sulfanyl]-2-(4-fluorophenyl)-1,3-oxazol-4-yl}methyl)amino]-N-ethylbenzamide], for which the IC50 at human FAAH [1] stood at 8 nM; at human FAAH [2], 3 nM.

Turning to `Fc1ccc(-c2nc(CNc3ccc4[nH]ncc4c3)c(Sc3ccc(Cl)cn3)o2)cc1` [Example B5.6, N-({5-[(5-chloropyridin-2-yl)sulfanyl]-2-(4-fluorophenyl)-1,3-oxazol-4-yl}methyl)-1H-indazol-5-amine], the IC50 at human FAAH [1] stood at 38 nM; on human FAAH [2], 22 nM.

Take `CCOC(=O)c1ccc(NCc2nc(-c3ccc(F)cc3)oc2Sc2ccc(Cl)cn2)nc1` [Example B5.7, ethyl 6-[({5-[(5-chloropyridin-2-yl)sulfanyl]-2-(4-fluorophenyl)-1,3-oxazol-4-yl}methyl)amino]pyridine-3-carboxylate]: the IC50 at human FAAH [1] was 24 nM; on human FAAH [2] it was 6 nM.

In the case of `CCNC(=O)c1ccc(NCc2nc(-c3ccc(F)cc3)oc2Sc2ccc(Cl)cn2)nc1` [Example B5.8, 6-[({5-[(5-chloropyridin-2-yl)sulfanyl]-2-(4-fluorophenyl)-1,3-oxazol-4-yl}methyl)amino]-N-ethylpyridine-3-carboxamide], the values for the IC50 on human FAAH [1] and at human FAAH [2] were 42 nM and 17 nM, respectively.

For the origin of these results see US9073879B2, “Oxazole derivatives useful as modulators of FAAH” (MERCK SHARP & DOHME CORP., priority 2010, dated 2015).
